Test systems include 786-0; CAKI-1; EKVX; HCT-116; HT-29; Hs-578T; LOX IMVI; MDA-N; NCI-H226; NCI-H23; OVCAR-3; OVCAR-5; RXF 393; SF-268; SK-MEL-5; SK-OV-3; SNB-75; T47D; TK-10; UACC-257.
Test in all cases: DTP human tumour cell line panel, 48 h

This is an account of results in ChEMBL document CHEMBL1201862, “PubChem BioAssay data set” (2004).

As usually defined, the GI50 is the concentration at which growth is held to half of that of the control.

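Five concentrations, 48 hours, 96-well plates. The concentration for 50% growth inhibition is given as GI50.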 The source made the active and inactive calls. No stated cut-off is given here; in the data, active = GI50 up to about 1.1 µM and inactive = higher.

Consider `CC(=O)c1ccc(Nc2c3c(nc4ccccc24)CCCC3)cc1`, for which the GI50 with 786-0 was 25.7 µM (inactive); with CAKI-1, 16.4 µM (inactive); in the test on EKVX, 28 µM (inactive); in the test on HCT-116, 13.2 µM (inactive); in the test with HT-29, 10.2 µM (inactive); in the test with Hs-578T, 27.9 µM (inactive). Besides, the GI50 with LOX IMVI was 10 µM (inactive); with MDA-N, 2.72 µM (inactive); in the test on NCI-H226 it was 14 µM (inactive); in the test with NCI-H23 it was 11.3 µM (inactive); in the test with OVCAR-3, 11.5 µM (inactive); in the test with OVCAR-5 it was 13.5 µM (inactive). For the same compound, the GI50 is 20.5 µM (inactive) in the test with RXF 393; 40.2 µM (inactive) with SF-268; 14.9 µM (inactive) with SK-MEL-5; 26.7 µM (inactive) in the test with SK-OV-3; 4.12 µM (inactive) in the test with SNB-75; 10.1 µM (inactive) in the test on T47D. The GI50 was 42.5 µM (inactive) with TK-10 and 24.5 µM (inactive) in the test on UACC-257.

For the compound `CO/C(N)=C(C#N)/N=C/c1ccco1`, the GI50 in the test on 786-0, in the test with CAKI-1, in the test with EKVX, in the test on HCT-116, with HT-29 and in the test with Hs-578T was > 100 µM (inactive) each time. The GI50 with LOX IMVI, with MDA-N, in the test on NCI-H226, in the test on NCI-H23, in the test with OVCAR-3 and in the test with OVCAR-5 was > 100 µM (inactive) in each case. Also, the GI50 with RXF 393, with SF-268, with SK-MEL-5, with SK-OV-3, in the test on SNB-75 and in the test with T47D was > 100 µM (inactive) throughout. In addition, the GI50 with TK-10 and in the test with UACC-257 was > 100 µM (inactive) throughout.

For the compound `Cn1c2ccc3cc2c(=S)c2cc(ccc21)OCCOCCOCCOCCOCCOCCO3`, the GI50 in the test with 786-0, in the test on CAKI-1, with EKVX, in the test with HCT-116, in the test with HT-29 and with Hs-578T was > 10 µM (inactive) each time. For the same compound, the GI50 with LOX IMVI, in the test on MDA-N, in the test with NCI-H226, with NCI-H23, with OVCAR-3 and in the test with OVCAR-5 was > 10 µM (inactive) throughout. For the same compound, the GI50 with RXF 393, in the test on SF-268, with SK-MEL-5, with SK-OV-3, with SNB-75 and in the test on T47D was > 10 µM (inactive) each time. The GI50 in the test on TK-10 and in the test on UACC-257 was > 10 µM (inactive) throughout.

Turning to `O=C1c2ccccc2C(=O)[C@@]23O[C@@]12C1(Oc2cccc4cccc(c24)O1)[C@@H]1O[C@@H]1[C@@H]3O`, the GI50 with 786-0 is 4.23 µM (inactive); with CAKI-1 it was 11.1 µM (inactive); with EKVX it was 20.5 µM (inactive); with HCT-116, 4.4 µM (inactive); in the test with HT-29, 4.94 µM (inactive); in the test on Hs-578T, 14.9 µM (inactive). In addition, the GI50 was 4.22 µM (inactive) with LOX IMVI; 9.46 µM (inactive) in the test on MDA-N; 8.39 µM (inactive) in the test with NCI-H226; 13.6 µM (inactive) in the test with NCI-H23; 4.65 µM (inactive) in the test on OVCAR-3; 17.8 µM (inactive) with OVCAR-5. Also, the GI50 with RXF 393 is 2.95 µM (inactive); in the test with SF-268 it was 9.68 µM (inactive); in the test on SK-MEL-5, 24.4 µM (inactive); with SK-OV-3, 15.1 µM (inactive); in the test on SNB-75, 10.7 µM (inactive); with T47D it was 9.16 µM (inactive). The GI50 in the test with TK-10 was 11.3 µM (inactive); with UACC-257, 15.8 µM (inactive).

Consider `COc1cc([C@H]2CC(=O)C[C@@H](c3cc(OC)c(OC)c(OC)c3)C23C(=O)c2ccccc2C3=O)cc(OC)c1OC`, for which the GI50 in the test on 786-0 was > 100 µM (inactive); in the test with CAKI-1 it was > 100 µM (inactive); in the test with EKVX, 91.8 µM (inactive); in the test with HCT-116 it was > 100 µM (inactive); with HT-29 it was > 100 µM (inactive); in the test on Hs-578T it was > 100 µM (inactive). Further, the GI50 with LOX IMVI, in the test on MDA-N, in the test on NCI-H226, in the test with NCI-H23, in the test on OVCAR-3 and with OVCAR-5 was > 100 µM (inactive) each time. In addition, the GI50 was > 100 µM (inactive) with RXF 393; > 100 µM (inactive) in the test on SF-268; > 100 µM (inactive) with SK-MEL-5; > 100 µM (inactive) with SK-OV-3; 45.1 µM (inactive) in the test on SNB-75; > 100 µM (inactive) with T47D. Moreover, the GI50 with TK-10 and in the test with UACC-257 was > 100 µM (inactive) each time.

`COc1cccc2c1C(=O)OC2c1cccc2ccccc12` (stereo not given): the GI50 with 786-0 was 50.8 µM (inactive); in the test on CAKI-1 it was > 100 µM (inactive); with EKVX, > 100 µM (inactive); with HCT-116, > 96.6 µM (inactive); in the test with HT-29 it was > 100 µM (inactive); in the test with Hs-578T, 33 µM (inactive). The GI50 in the test on LOX IMVI was > 100 µM (inactive); in the test on MDA-N it was > 100 µM (inactive); in the test with NCI-H226 it was 92.9 µM (inactive); with NCI-H23, > 100 µM (inactive); in the test on OVCAR-3, 74.8 µM (inactive); with OVCAR-5, > 100 µM (inactive). The GI50 in the test with RXF 393 is 31.5 µM (inactive); in the test on SF-268, 72.8 µM (inactive); in the test on SK-MEL-5 it was > 100 µM (inactive); with SK-OV-3 it was > 73.6 µM (inactive); in the test on SNB-75 it was 23.8 µM (inactive); with T47D, > 100 µM (inactive). Besides, the GI50 in the test on TK-10 was > 73.3 µM (inactive); in the test on UACC-257, > 91 µM (inactive).

Take `Cc1cc(N(CCOS(C)(=O)=O)CCOS(C)(=O)=O)ccc1/C=N/c1ccc(-c2nc(Cc3ccccc3)sc2C)cc1`: the GI50 was 1.28 µM (inactive) in the test with 786-0; 1.23 µM (inactive) in the test with CAKI-1; 4.27 µM (inactive) in the test with EKVX; 15.2 µM (inactive) with HCT-116; 5.3 µM (inactive) with HT-29; 10.6 µM (inactive) in the test on Hs-578T. For the same compound, the GI50 with LOX IMVI was 5.37 µM (inactive); in the test on MDA-N, 11.8 µM (inactive); in the test with NCI-H226, 2.2 µM (inactive); with NCI-H23, 2.91 µM (inactive); in the test with OVCAR-3 it was 2.87 µM (inactive); with OVCAR-5, 11.2 µM (inactive). Further, the GI50 in the test with RXF 393 is 0.933 µM (active); with SF-268 it was 3.99 µM (inactive); in the test with SK-MEL-5, 9.68 µM (inactive); with SK-OV-3, 0.494 µM (active); in the test with SNB-75 it was 1.66 µM (inactive); with T47D, 2.03 µM (inactive). In addition, the GI50 is 4.6 µM (inactive) in the test on TK-10 and 12.1 µM (inactive) in the test with UACC-257.

With `CCOC(=O)NC(Nc1ccc(F)cc1F)(C(F)(F)F)C(F)(F)F`, the GI50 with 786-0, in the test on CAKI-1, in the test on EKVX, in the test with HCT-116, with HT-29 and with Hs-578T was > 100 µM (inactive) in each case. In addition, the GI50 in the test with LOX IMVI, in the test on MDA-N, in the test with NCI-H226, in the test on NCI-H23, in the test on OVCAR-3 and in the test with OVCAR-5 was > 100 µM (inactive) throughout. For the same compound, the GI50 with RXF 393, in the test with SF-268, with SK-MEL-5, in the test on SK-OV-3, with SNB-75 and in the test with T47D was > 100 µM (inactive) each time. Besides, the GI50 with TK-10 and with UACC-257 was > 100 µM (inactive) each time.

`COc1ccc2c(c1)c(=O)c1c(NCCCN(C)C)ccc3ncn2c31`: the GI50 with 786-0 was 1.68 µM (inactive); in the test on CAKI-1, 5.68 µM (inactive); with EKVX it was 13.8 µM (inactive); with HCT-116 it was 0.188 µM (active); in the test on HT-29, 1.13 µM (inactive); in the test with Hs-578T, 10.6 µM (inactive). In addition, the GI50 is 1.54 µM (inactive) with LOX IMVI; 5.37 µM (inactive) in the test with MDA-N; 2.9 µM (inactive) with NCI-H226; 5.87 µM (inactive) in the test with NCI-H23; 10.4 µM (inactive) with OVCAR-3; 12.3 µM (inactive) with OVCAR-5. Further, the GI50 was 0.366 µM (active) in the test on RXF 393; 1.31 µM (inactive) in the test on SF-268; 7.67 µM (inactive) with SK-MEL-5; 8.38 µM (inactive) with SK-OV-3; 6.3 µM (inactive) with SNB-75; 16.3 µM (inactive) with T47D. Also, the GI50 in the test on TK-10 was 6.1 µM (inactive); with UACC-257, 12.2 µM (inactive).

In the case of `Clc1ccc(OCc2nnc3sc(-c4ccc(-c5ccc(Cl)cc5Cl)o4)nn23)cc1`, the GI50 with 786-0, in the test on CAKI-1, with EKVX, in the test on HCT-116, in the test with HT-29 and in the test with Hs-578T was > 100 µM (inactive) throughout. The GI50 with LOX IMVI, in the test with MDA-N, in the test on NCI-H226, in the test on NCI-H23, in the test on OVCAR-3 and with OVCAR-5 was > 100 µM (inactive) throughout. For the same compound, the GI50 is 16.4 µM (inactive) in the test on RXF 393; > 100 µM (inactive) in the test on SF-268; > 100 µM (inactive) in the test on SK-MEL-5; > 100 µM (inactive) in the test with SK-OV-3; 7.85 µM (inactive) in the test on SNB-75; > 100 µM (inactive) in the test with T47D. Besides, the GI50 with TK-10 and with UACC-257 was > 100 µM (inactive) in each case.
